Test results taken from PubChem BioAssay AID2060614 (Molecular Pharmacology Branch, DTP, NCI, 2025).
pIC50: −log10 of the molar value.

Tested on: 598228-144-R-J1-PDC complex spheroids, viability
Test: Anticancer human tumor 598228-144-R-J1-PDC patient-derived serous endometrial adenocarcinoma cell line growth inhibition [CLK]
Settings: for pIC50: curve of first compound; for viability, T/C: stronger effect = lower value
Procedure, shortened: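 Multi-cell-type spheroids combined patient-derived tumor cells with HUVEC endothelial cells and human mesenchymal stem cells. Paired agents were dosed in half-log steps down from about clinical Cmax, or from 10 microM where Cmax was unknown.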
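Also: spheroids exposed to compounds for seven days before readout.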
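For viability, T/C in this document: 100% = DMSO vehicle control wells.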

Work on C=CC(=O)Nc1cc(Nc2nccc(-c3cn(C)c4ccccc34)n2)c(OC)cc1N(C)CCN(C)C + CN1CCN(c2cc(C(=O)Nc3cc4cc(-c5cnn(C)c5)ccc4cn3)ccn2)CC1 yielded a pIC50 (second compound 0.0316 µM) of less than 6.52, a pIC50 (second compound 0.1 µM) of less than 6.52 and a pIC50 (second compound 0.316 µM) greater than 9.02. For the same compound, the pIC50 (second compound 1 µM) was greater than 9.02, the pIC50 (second compound 3.16 µM) was greater than 9.02 and the pIC50 (second compound 10 µM) was greater than 9.02. The viability, T/C (second compound 0.0316 µM, first compound 0.000949 µM) was 133%, the viability, T/C (second compound 0.0316 µM, first compound 0.003 µM) was 108% and the viability, T/C (second compound 0.0316 µM, first compound 0.00949 µM) was 114%. For the same compound, the viability, T/C (second compound 0.0316 µM, first compound 0.03 µM) was 117%, the viability, T/C (second compound 0.0316 µM, first compound 0.0949 µM) was 108% and the viability, T/C (second compound 0.0316 µM, first compound 0.3 µM) was 98.8%. It also gave a viability, T/C (second compound 0.1 µM, first compound 0.000949 µM) of 127%, a viability, T/C (second compound 0.1 µM, first compound 0.003 µM) of 126% and a viability, T/C (second compound 0.1 µM, first compound 0.00949 µM) of 116%. For the same compound, the viability, T/C (second compound 0.1 µM, first compound 0.03 µM) was 112%, the viability, T/C (second compound 0.1 µM, first compound 0.0949 µM) was 103% and the viability, T/C (second compound 0.1 µM, first compound 0.3 µM) was 91.9%. The viability, T/C (second compound 0.316 µM, first compound 0.000949 µM) was 19.6%, the viability, T/C (second compound 0.316 µM, first compound 0.003 µM) was 17% and the viability, T/C (second compound 0.316 µM, first compound 0.00949 µM) was 17.1%. It also gave a viability, T/C (second compound 0.316 µM, first compound 0.03 µM) of 15.4%, a viability, T/C (second compound 0.316 µM, first compound 0.0949 µM) of 12.5% and a viability, T/C (second compound 0.316 µM, first compound 0.3 µM) of 14.6%. For the same compound, the viability, T/C (second compound 1 µM, first compound 0.000949 µM) was 1.75%, the viability, T/C (second compound 1 µM, first compound 0.003 µM) was 2.14% and the viability, T/C (second compound 1 µM, first compound 0.00949 µM) was 6.03%. For the same compound, the viability, T/C (second compound 1 µM, first compound 0.03 µM) was 1.51%, the viability, T/C (second compound 1 µM, first compound 0.0949 µM) was 1.29% and the viability, T/C (second compound 1 µM, first compound 0.3 µM) was 3.97%. For the same compound, the viability, T/C (second compound 3.16 µM, first compound 0.000949 µM) was 1.65%, the viability, T/C (second compound 3.16 µM, first compound 0.003 µM) was 1.56% and the viability, T/C (second compound 3.16 µM, first compound 0.00949 µM) was 2.1%. The viability, T/C (second compound 3.16 µM, first compound 0.03 µM) was 1.72%, the viability, T/C (second compound 3.16 µM, first compound 0.0949 µM) was 2.58% and the viability, T/C (second compound 3.16 µM, first compound 0.3 µM) was 2.49%. The viability, T/C (second compound 10 µM, first compound 0.000949 µM) was 1.18%, the viability, T/C (second compound 10 µM, first compound 0.003 µM) was 1.02% and the viability, T/C (second compound 10 µM, first compound 0.00949 µM) was 1.77%. It also gave a viability, T/C (second compound 10 µM, first compound 0.03 µM) of 1.25%, a viability, T/C (second compound 10 µM, first compound 0.0949 µM) of 5.91% and a viability, T/C (second compound 10 µM, first compound 0.3 µM) of 2.52%.

For CC1(C)CCC(CN2CCN(c3ccc(C(=O)NS(=O)(=O)c4ccc(NCC5CCOCC5)c([N+](=O)[O-])c4)c(Oc4cnc5[nH]ccc5c4)c3)CC2)=C(c2ccc(Cl)cc2)C1 + CN1CCN(c2cc(C(=O)Nc3cc4cc(-c5cnn(C)c5)ccc4cn3)ccn2)CC1, the pIC50 (second compound 0.0316 µM) was 5.11, the pIC50 (second compound 0.1 µM) was 5.11 and the pIC50 (second compound 0.316 µM) was greater than 7.50. The pIC50 (second compound 1 µM) was greater than 7.50, the pIC50 (second compound 3.16 µM) was greater than 7.50 and the pIC50 (second compound 10 µM) was greater than 7.50. For the same compound, the viability, T/C (second compound 0.0316 µM, first compound 0.0316 µM) was 138%, the viability, T/C (second compound 0.0316 µM, first compound 0.1 µM) was 113% and the viability, T/C (second compound 0.0316 µM, first compound 0.316 µM) was 111%. For the same compound, the viability, T/C (second compound 0.0316 µM, first compound 1 µM) was 118%, the viability, T/C (second compound 0.0316 µM, first compound 3.16 µM) was 114% and the viability, T/C (second compound 0.0316 µM, first compound 10 µM) was 30.9%. The viability, T/C (second compound 0.1 µM, first compound 0.0316 µM) was 116%, the viability, T/C (second compound 0.1 µM, first compound 0.1 µM) was 121% and the viability, T/C (second compound 0.1 µM, first compound 0.316 µM) was 116%. It also gave a viability, T/C (second compound 0.1 µM, first compound 1 µM) of 124%, a viability, T/C (second compound 0.1 µM, first compound 3.16 µM) of 113% and a viability, T/C (second compound 0.1 µM, first compound 10 µM) of 31%. The viability, T/C (second compound 0.316 µM, first compound 0.0316 µM) was 19.3%, the viability, T/C (second compound 0.316 µM, first compound 0.1 µM) was 16.8% and the viability, T/C (second compound 0.316 µM, first compound 0.316 µM) was 14.4%. The viability, T/C (second compound 0.316 µM, first compound 1 µM) was 15.5%, the viability, T/C (second compound 0.316 µM, first compound 3.16 µM) was 11.9% and the viability, T/C (second compound 0.316 µM, first compound 10 µM) was 7.07%. The viability, T/C (second compound 1 µM, first compound 0.0316 µM) was 1.25%, the viability, T/C (second compound 1 µM, first compound 0.1 µM) was 1.59% and the viability, T/C (second compound 1 µM, first compound 0.316 µM) was 2.76%. It also gave a viability, T/C (second compound 1 µM, first compound 1 µM) of 1.46%, a viability, T/C (second compound 1 µM, first compound 3.16 µM) of 2.58% and a viability, T/C (second compound 1 µM, first compound 10 µM) of 1.73%. It also gave a viability, T/C (second compound 3.16 µM, first compound 0.0316 µM) of 1.65%, a viability, T/C (second compound 3.16 µM, first compound 0.1 µM) of 3.1% and a viability, T/C (second compound 3.16 µM, first compound 0.316 µM) of 1.66%. It also gave a viability, T/C (second compound 3.16 µM, first compound 1 µM) of 1.86%, a viability, T/C (second compound 3.16 µM, first compound 3.16 µM) of 3.99% and a viability, T/C (second compound 3.16 µM, first compound 10 µM) of 4.73%. It also gave a viability, T/C (second compound 10 µM, first compound 0.0316 µM) of 0.92%, a viability, T/C (second compound 10 µM, first compound 0.1 µM) of 2.13% and a viability, T/C (second compound 10 µM, first compound 0.316 µM) of 0.62%. It also gave a viability, T/C (second compound 10 µM, first compound 1 µM) of 0.79%, a viability, T/C (second compound 10 µM, first compound 3.16 µM) of 2.58% and a viability, T/C (second compound 10 µM, first compound 10 µM) of 3.9%.
